{"source": "paper PMC4557289", "about": "“Thymoproteasomes produce unique peptide motifs for positive selection of CD8^+ T cells” (Nature Communications, 2015)", "key": {"OT-I TCR [1]": {"tested_on": "OT-I TCR", "assay": "CD4/CD8 dulling assay, OT-I thymocytes", "format": "cell-based, mouse", "settings": "thymocytes from Tap1^−/− OT-I TCR-transgenic mice (n=3) with peptide and irradiated B6-Ly5.1 splenocytes, 18 h, flow cytometry; Fig. 6c; result in words", "description": "Dulling assay was performed as described[45][46] with minor modifications. Thymocytes from Tap1^−/− OT-I TCR transgenic mice were stimulated in the presence of peptides and irradiated splenocytes from B6-Ly5.1 mice (CD45.1^+CD45.2^−). Female mice at 6–8 weeks of age were used for experiments. After 18 h, thymocytes were stained with antibodies specific for CD4 (GK1.5), CD8 (53-6.7), CD45.1 (A20) and CD45.2 (104) and analysed using flow cytometry (antibodies were obtained from Biolegend and used at 10 μg ml^−1). Specific dulling of CD4 and CD8 expression induced by peptide stimulation was calculated as previously described."}, "[2]": {"tested_on": "thymus lobes from Tap1^−/− OT-I TCR transgenic mice", "assay": "fetal thymus organ culture (FTOC) of OT-I thymocytes", "format": "cell-based, mouse", "settings": "E15 thymus lobes, peptide 20 μM, 3 days, result in words", "description": "FTOC was essentially performed as described previously. Embryonic mice on day 15 of gestation were obtained from Tap1^−/− OT-I TCR transgenic mice. Thymus lobes were cultured on Isopore membrane filters (Millipore) placed on Gelfoam sponge (Pfizer) floated in medium. Peptides were added at a concentration of 20 μM. After 3 days in the culture, thymocytes were stained with antibodies specific for CD4 (GK1.5), CD8 (53-6.7) and Vα2 (B20.1) and analysed using flow cytometry; staining antibodies were obtained from Biolegend and were used at 10 μg ml^−1."}, "OT-I TCR [3]": {"tested_on": "OT-I TCR", "assay": "agonist activity assay (T-cell stimulation, CD69), mature OT-I cells", "format": "cell-based, mouse", "settings": "splenocytes from Rag^−/− OT-I TCR transgenic mice (n=3), peptide 5 h, CD69 on CD8^+CD44^lo cells; Fig. 6d; result in words", "description": "Spleen cells from Rag1^−/− OT-I TCR transgenic mice (8-week-old females) were cultured in the presence of peptides for 5 h. CD69 expression on CD8^+CD44^lo cells was analysed using flow cytometry using anti-CD69 antibodies (H1.2F3; BD Pharmingen, 10 μg ml^−1)."}, "OT-I thymocytes": {"tested_on": "OT-I thymocytes", "settings": "known classification of OVAp and variants, Fig. 6a; cited from earlier work", "text": "To examine whether these peptide features play roles in thymic selection, we employed the OVA-specific TCR transgenic line OT-I, which is the best-studied model of amino-acid substitution in MHC-associated peptides for thymic selection of functionally competent MHC-I-restricted T cells. […] We then tested OVAp variant peptides with tCP ... || Figure 6 OVAp peptide variants with tCP-dependent motifs show lower affinities to OT-I TCR. (a) List of OVAp variants used for assays in b–d and Fig. 7a,b. (b) Binding of peptide/H-2K^b tetramers to CD4/CD8 double-positive thymocytes from Tap1^−/− OT-I TCR-transgenic mice. (c) Dulling of CD4/CD8 co-receptors in OT-I thymocytes by OVAp variants. Thymocytes from Tap1^−/− OT-I TCR-transgenic mice (n=3) were stimulated in the presence of peptides at indicated concentrations and irradiated splenocytes from B6-Ly5.1 mice. (d) Activation of mature OT-I cells by OVAp variants. Splenocytes from Rag2^−/ ..."}, "OT-I TCR [4]": {"tested_on": "OT-I TCR", "assay": "MHC-tetramer-binding assay (peptide/H-2K^b tetramers)", "set-up": "species or system mouse", "settings": "peptide/H-2K^b tetramers on CD4/CD8 double-positive thymocytes from Tap1^−/− OT-I TCR-transgenic mice, 100 μM cytochalasin D, 37 °C, 90 min, flow cytometry; Fig. 6b; result in words", "description": "CD4/CD8 double-positive thymocytes from Tap1^−/− OT-I TCR transgenic mice (6- to 8-week-old females) were stained with indicated peptide-K^b tetramers (MBL) in the presence of 100 μM cytochalasin D (Sigma-Aldrich) at 37 °C for 90 min (refs [31], [44]) and were analysed using flow cytometry."}}, "note": "“Also recorded” adds a separate entry of the source."}
{"sequence": "SIINFEKL [OVAp]", "values": [{"measurement": "affinity to OT-I TCR by CD4/CD8 dulling assay", "setting": "OT-I TCR [1]", "value": "high affinity"}, {"measurement": "CD4/CD8 double-positive cells in FTOC", "setting": "[2]; Fig. 7a,b", "value": "depletion of CD4/CD8 double-positive cells"}, {"measurement": "number of OT-I TCR^high (Vα2^high) CD8 single-positive thymocytes in FTOC, compared with unrelated peptide gp33", "setting": "[2]; Fig. 7b, n=3, Student's t-test", "value": "clear decrease"}, {"measurement": "affinity to OT-I TCR by agonist activity assay", "setting": "OT-I TCR [3]", "value": "high affinity"}, {"measurement": "Effects on DP thymocytes (thymic selection of OT-I thymocytes)", "setting": "OT-I thymocytes", "value": "mediates negative selection; also recorded: Negative selector, original Ag"}, {"measurement": "affinity to OT-I TCR by MHC-tetramer-binding assay", "setting": "OT-I TCR [4]", "value": "high affinity"}]}
